Data on 17 molecules can be found in the SangsterLogP compilation.

Molecules are shown by their SMILES.

Series [1] can be described thus: method code SF-AS, from Lembo, S.; Sasso, V.; Silipo, C.; Vittoria, A. (1983). Physicochemical properties and drug design in a set of analgesics. Farmaco [Sci], 38(10)750-761. The note with it: pH 7.4.

As usually defined, the logP is a log measure of how a compound divides between an organic and an aqueous phase. A low value points to lower lipophilicity. What is called logD is the decadic logarithm of the distribution of all forms, ionised or not, between an organic phase and buffer at a given pH. The low end stands for lower lipophilicity, the high end for higher lipophilicity.

`CC(=O)Nc1ccccc1C(C)=O` displayed a lipophilicity (logP) of 1.4.
Molecule `CC(=O)c1ccccc1NCCO` came in with a log partition coefficient (logP) of 1.28.
With `COc1ccccc1NCC#N`, in series [1], the logD came to 1.3.
In turn, `CC(C)Nc1ccccc1C(N)=O` returned a lipophilicity (logP) of 1.87.
Take `N#CCNc1ccccc1C(N)=O`: the logD in series [1] came to 0.5.
With `CC(=O)c1ccccc1NC(=O)C(Cl)Cl`, the log distribution coefficient (logD) in series [1] came to 2.65.
Take `COc1ccccc1NCC(C)=O`: the logD in series [1] is 1.49.
`COc1ccccc1NCCO` displayed a logP of 1.07.
The molecule `CCCCNc1ccccc1C(N)=O` yielded a logD in series [1] of 2.33.
On to `COc1ccccc1NC(=O)C(Cl)Cl`, for which the logD in series [1] was 2.41.
The same measure, in the same setting: under `CC(=O)CNc1ccccc1C(N)=O` stands 0.61.
As for `COc1ccccc1NCC(N)=O`, the logP was found to be 0.63.
Take `COc1ccccc1NC(C)=O`: the logP is 1.02.
The molecule `CC(=O)c1ccccc1NCC#N` yielded a logD in series [1] of 1.58.
Take `CC(=O)Nc1ccccc1C(N)=O`: the log partition coefficient (logP) is 0.31.
Take `NC(=O)c1ccccc1NC(=O)C(Cl)Cl`: the logP came out at 1.51.
`CCCCNc1ccccc1OC` came in with a pH-dependent lipophilicity (logD) in series [1] of 2.85.
